Source: ChEMBL document CHEMBL1201862, “PubChem BioAssay data set” (2004)
Activity calls are given as the source filed them.

Experiments:
[1] = target: T1, Intestinal-type alkaline phosphatase (Homo sapiens, UniProt P09923); assay: Dose Response confirmation of uHTS hits from a small molecule inhibitors of human intestinal alkaline phosphatase via a luminescent assay. [Related pubchem assays (depositor defined):AID2544, AID2574]; assay type: functional
[2] = target: T1, Intestinal-type alkaline phosphatase; assay: human intestinal alkaline phosphatase activators, dose response, biochemical, luminescence, uHTS hits (AID 463120); assay type: functional
Coagulation factor XII = target: T2, Coagulation factor XII (Homo sapiens, UniProt P00748); assay type: functional;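 further: activated factor XIIa alpha cleaving a fluorogenic AMC peptide substrate; inhibitor potency from loss of enzyme activity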
T2 sequence (P00748 whole entry): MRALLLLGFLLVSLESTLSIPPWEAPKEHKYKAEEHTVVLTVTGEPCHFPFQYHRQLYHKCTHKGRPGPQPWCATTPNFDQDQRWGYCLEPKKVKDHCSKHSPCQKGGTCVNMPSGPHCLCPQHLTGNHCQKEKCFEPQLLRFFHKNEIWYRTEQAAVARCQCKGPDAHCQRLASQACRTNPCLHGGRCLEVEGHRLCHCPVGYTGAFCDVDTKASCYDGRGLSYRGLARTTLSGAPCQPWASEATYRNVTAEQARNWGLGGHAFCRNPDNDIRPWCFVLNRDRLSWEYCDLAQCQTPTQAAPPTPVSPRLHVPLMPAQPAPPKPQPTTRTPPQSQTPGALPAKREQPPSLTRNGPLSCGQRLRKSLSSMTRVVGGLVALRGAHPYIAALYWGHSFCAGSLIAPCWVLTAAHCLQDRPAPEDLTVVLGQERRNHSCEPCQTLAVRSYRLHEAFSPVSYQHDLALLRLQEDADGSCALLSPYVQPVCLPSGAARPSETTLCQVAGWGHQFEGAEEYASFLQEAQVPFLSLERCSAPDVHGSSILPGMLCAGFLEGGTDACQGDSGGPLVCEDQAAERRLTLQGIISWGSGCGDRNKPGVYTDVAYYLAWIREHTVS

[3] = target: DNA dC->dU-editing enzyme APOBEC-3A (Homo sapiens, UniProt P31941); assay: A3A deaminase inhibition for selectivity – biochemical, dose response (AID 504722); assay type: functional
[4] = target: Glucose-6-phosphate 1-dehydrogenase (Homo sapiens, UniProt P11413); assay: inhibition of Homo sapiens G6PD, dose series – biochemical, fluorescence, selectivity assay for P. falciparum G6PD inhibitor project, dose response (AID 504792); assay type: functional
[5] = target: DNA dC->dU-editing enzyme APOBEC-3G (Homo sapiens, UniProt Q9HC16); assay: Dose Response confirmation of small molecule APOBEC3G DNA Deaminase Inhibitors via a fluorescence-based single-stranded DNA deaminase assay. [Related pubchem assays (depositor defined):AID493012, AID493028]; assay type: functional
[6] = target: T3, Voltage-gated N-type calcium channel alpha-1B subunit/Amyloid beta A4 precursor protein-binding family A member 1 (Homo sapiens, UniProt Q00975+Q02410); assay type: protein assay
[7] = target: T3, Voltage-gated N-type calcium channel alpha-1B subunit/Amyloid beta A4 precursor protein-binding family A member 1; assay type: protein assay; remark: listed apart in the source
[8] = THP-1 cell cytotoxicity, dose response, cytotoxicity control for non-replicating M. tuberculosis project (AID 489025); assay type: functional
[9] = HepG2 cell cytotoxicity, dose response, cytotoxicity control for non-replicating M. tuberculosis project (AID 489018); assay type: functional; conditions: Mycobacterium tuberculosis
cells [10] = assay type: functional
[11] = target: DNA damage-inducible transcript 3 protein (Mus musculus, UniProt P35639); assay type: functional, Cricetulus griseus
[12] = Luminescence Cell-Based Dose Retest to Confirm Inhibitors of Cancer Stem Cells. [Related pubchem assays (depositor defined):AID2717, AID2721]; assay type: functional; conditions: Homo sapiens
[13] = target: T4, Heat shock factor protein 1 (Mus musculus, UniProt P38532); assay: enhancement of HSF1-driven luciferase signal – cell-based, NIH3T3, luminescence, dose retest, confirmation (AID 435004); assay type: functional;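 further: stress induced by proteasome inhibitor MG132 added 30 min after compound; luciferase reporter driven by HSF1 response element in NIH3T3 cells; actives raise luminescence as potentiators of the MG132 stress response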
T4 sequence (P38532 whole entry): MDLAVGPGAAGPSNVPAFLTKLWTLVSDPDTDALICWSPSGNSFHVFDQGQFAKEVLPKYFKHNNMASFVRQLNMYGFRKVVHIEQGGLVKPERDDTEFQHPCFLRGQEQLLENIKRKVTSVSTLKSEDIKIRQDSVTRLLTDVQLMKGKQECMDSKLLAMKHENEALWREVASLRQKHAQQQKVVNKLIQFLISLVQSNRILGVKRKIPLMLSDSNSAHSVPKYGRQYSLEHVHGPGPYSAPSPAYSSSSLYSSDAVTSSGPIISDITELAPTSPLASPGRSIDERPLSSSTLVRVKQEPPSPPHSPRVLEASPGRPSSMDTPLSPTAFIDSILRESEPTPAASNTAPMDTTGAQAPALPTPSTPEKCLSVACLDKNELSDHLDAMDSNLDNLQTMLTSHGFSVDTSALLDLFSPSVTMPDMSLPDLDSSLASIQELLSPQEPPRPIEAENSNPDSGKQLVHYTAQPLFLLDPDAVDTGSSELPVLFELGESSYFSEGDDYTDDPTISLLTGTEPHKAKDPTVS

[14] = microbe, parasite or virus in culture; assay type: functional; conditions: Mycobacterium tuberculosis
[15] = Vero E6 cell cytotoxicity, dose response, cytotoxicity control for non-replicating M. tuberculosis project, secondary assay (AID 492998); assay type: functional, VeroE6; conditions: Vero C1008
HEK293 [16] = assay: EBV LMP1 TES2 canonical NF-kB signalling blockers – cell-based, HEK293, luciferase, cherry-pick, dose response (AID 588343); assay type: functional; conditions: Homo sapiens
[17] = viability of uninfected HEp-2 cells – cell-based, HTS, cytotoxicity control for RSV inhibitor project, dose response (AID 2410); assay type: functional; conditions: human respiratory syncytial virus
BJ [18] = assay: BJ-TERT fibroblast viability loss – cell-based, RAS-independent, luminescence, dose response (AID 1933); assay type: functional; conditions: Homo sapiens
BJ [19] = assay: cells; assay type: functional, cell-based; conditions: Homo sapiens
[20] = Trypanosoma cruzi growth suppression in host cells – NIH3T3 host cells, beta-gal luminescence, confirmation (AID 2044); assay type: functional, cell-based;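 further: intracellular parasites grown in NIH/3T3 mouse fibroblasts as host cells; luminescent beta-galactosidase reporter signal from transgenic T. cruzi replicating inside host cells; inhibitors lower the luminescence signal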
[21] = NIH3T3 cell viability loss – ATP luminescence, mouse fibroblasts, counter-screen, dose response (AID 2010); assay type: functional, cell-based;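 further: cells exposed to compound for about 90 hours before reading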
BJ [22] = assay: BJ-TERT-LT-ST fibroblast viability loss – cell-based, RAS-independent, luminescence, dose response (AID 1935); assay type: functional; conditions: Homo sapiens;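 further: BJ fibroblasts immortalized with TERT plus LT and ST oncogenes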
[23] = DRD fibroblast viability loss – cell-based, non-viral oncogenic, luminescence, dose response (AID 1934); assay type: functional; conditions: Homo sapiens
[24] = target: T5, Type-1 angiotensin II receptor (Homo sapiens, UniProt P30556); assay: agonist activity at AGTR1 – cell-based, uHTS hits, selectivity assay for APJ receptor agonist project, dose response (AID 488865); assay type: functional;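 further: beta-arrestin recruitment to AT1 measured by enzyme fragment complementation luminescence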
T5 sequence (P30556 whole entry): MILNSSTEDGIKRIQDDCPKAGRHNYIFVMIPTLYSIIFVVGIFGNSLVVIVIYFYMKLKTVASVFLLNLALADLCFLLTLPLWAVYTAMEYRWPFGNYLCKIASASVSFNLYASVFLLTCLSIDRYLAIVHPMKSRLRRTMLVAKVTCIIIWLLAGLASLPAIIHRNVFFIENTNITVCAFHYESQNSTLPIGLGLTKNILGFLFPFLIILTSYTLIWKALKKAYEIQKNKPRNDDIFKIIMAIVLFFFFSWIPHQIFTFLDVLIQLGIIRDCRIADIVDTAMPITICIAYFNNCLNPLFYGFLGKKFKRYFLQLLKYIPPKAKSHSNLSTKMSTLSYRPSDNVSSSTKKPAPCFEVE

Melanocortin receptor 4 = Melanocortin receptor 4 (Homo sapiens, UniProt P32245); assay type: functional, cell-based;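 further: Cell-based assay with luminescence read-out, confirmatory dose-response testing for agonist activity of biased ligands at MC4R; human U2OS cells with tagged receptor and beta-arrestin; potency of agonists that increase receptor coupling to beta-arrestin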
cells [25] = assay: cells
[26] = target: Glyceraldehyde-3-phosphate dehydrogenase (Homo sapiens, UniProt P04406)
[27] = target: Alkaline phosphatase, placental type (Homo sapiens, UniProt P05187); assay: human placental alkaline phosphatase inhibition – biochemical, luminescence, confirmation (AID 1512); assay type: functional
[28] = target: T6, Alkaline phosphatase, tissue-nonspecific isozyme (Homo sapiens, UniProt P05186); assay: potency against alkaline phosphatase TNAP – biochemical, luminescent, dose response, SAR follow-up (AID 1056)
T6 sequence (P05186 whole entry): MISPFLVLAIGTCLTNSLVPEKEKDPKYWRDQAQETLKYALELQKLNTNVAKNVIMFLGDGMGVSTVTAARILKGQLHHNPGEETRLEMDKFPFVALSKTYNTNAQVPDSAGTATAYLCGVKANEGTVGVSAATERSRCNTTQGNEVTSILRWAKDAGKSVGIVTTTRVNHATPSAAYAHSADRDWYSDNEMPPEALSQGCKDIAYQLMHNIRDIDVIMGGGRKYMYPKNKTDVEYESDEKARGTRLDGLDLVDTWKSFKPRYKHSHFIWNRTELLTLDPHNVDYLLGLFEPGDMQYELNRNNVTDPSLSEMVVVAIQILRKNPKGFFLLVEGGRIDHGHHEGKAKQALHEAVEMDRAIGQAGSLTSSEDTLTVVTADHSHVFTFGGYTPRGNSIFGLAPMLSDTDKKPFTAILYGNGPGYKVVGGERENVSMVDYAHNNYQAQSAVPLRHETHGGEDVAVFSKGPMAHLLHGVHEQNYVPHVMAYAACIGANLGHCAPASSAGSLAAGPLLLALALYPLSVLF

HEK293 [29] = assay: inhibition of NOD1-driven NF-kB reporter – cell-based, luminescence, uHTS, primary screen (AID 1578); assay type: functional; conditions: Homo sapiens
HEK293 [30] = assay: cells; assay type: functional, cell-based; conditions: Homo sapiens
HEK293 [31] = assay: cells; assay type: functional, cell-based; conditions: Homo sapiens; remark: listed apart in the source
[32] = target: Nucleotide-binding oligomerization domain-containing protein 2 (Homo sapiens, UniProt Q9HC29); assay: inhibition of NOD2-driven NF-kB reporter – cell-based, luminescence, uHTS, HEK293 (AID 1566); assay type: functional
HEK293 [33] = assay: NOD2 signaling inhibitors in MDP-stimulated cells, cell-based, uHTS, luminescence (AID 2001); assay type: functional; conditions: Homo sapiens
HEK293 [34] = assay: cells; assay type: functional, cell-based; conditions: Homo sapiens; remark: listed apart in the source
[35] = target: T7, Ubiquitin-conjugating enzyme E2 N (Homo sapiens, UniProt P61088); assay type: functional;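 further: Dose-response confirmation in a TR-FRET assay detecting UBC13-driven polyubiquitin chain formation, inhibition measured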
T7 sequence (P61088 whole entry): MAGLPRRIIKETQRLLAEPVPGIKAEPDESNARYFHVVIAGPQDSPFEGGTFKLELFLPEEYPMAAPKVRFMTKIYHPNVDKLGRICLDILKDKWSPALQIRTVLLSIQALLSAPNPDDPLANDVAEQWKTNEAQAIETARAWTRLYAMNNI

T3 sequence (Q00975 whole entry): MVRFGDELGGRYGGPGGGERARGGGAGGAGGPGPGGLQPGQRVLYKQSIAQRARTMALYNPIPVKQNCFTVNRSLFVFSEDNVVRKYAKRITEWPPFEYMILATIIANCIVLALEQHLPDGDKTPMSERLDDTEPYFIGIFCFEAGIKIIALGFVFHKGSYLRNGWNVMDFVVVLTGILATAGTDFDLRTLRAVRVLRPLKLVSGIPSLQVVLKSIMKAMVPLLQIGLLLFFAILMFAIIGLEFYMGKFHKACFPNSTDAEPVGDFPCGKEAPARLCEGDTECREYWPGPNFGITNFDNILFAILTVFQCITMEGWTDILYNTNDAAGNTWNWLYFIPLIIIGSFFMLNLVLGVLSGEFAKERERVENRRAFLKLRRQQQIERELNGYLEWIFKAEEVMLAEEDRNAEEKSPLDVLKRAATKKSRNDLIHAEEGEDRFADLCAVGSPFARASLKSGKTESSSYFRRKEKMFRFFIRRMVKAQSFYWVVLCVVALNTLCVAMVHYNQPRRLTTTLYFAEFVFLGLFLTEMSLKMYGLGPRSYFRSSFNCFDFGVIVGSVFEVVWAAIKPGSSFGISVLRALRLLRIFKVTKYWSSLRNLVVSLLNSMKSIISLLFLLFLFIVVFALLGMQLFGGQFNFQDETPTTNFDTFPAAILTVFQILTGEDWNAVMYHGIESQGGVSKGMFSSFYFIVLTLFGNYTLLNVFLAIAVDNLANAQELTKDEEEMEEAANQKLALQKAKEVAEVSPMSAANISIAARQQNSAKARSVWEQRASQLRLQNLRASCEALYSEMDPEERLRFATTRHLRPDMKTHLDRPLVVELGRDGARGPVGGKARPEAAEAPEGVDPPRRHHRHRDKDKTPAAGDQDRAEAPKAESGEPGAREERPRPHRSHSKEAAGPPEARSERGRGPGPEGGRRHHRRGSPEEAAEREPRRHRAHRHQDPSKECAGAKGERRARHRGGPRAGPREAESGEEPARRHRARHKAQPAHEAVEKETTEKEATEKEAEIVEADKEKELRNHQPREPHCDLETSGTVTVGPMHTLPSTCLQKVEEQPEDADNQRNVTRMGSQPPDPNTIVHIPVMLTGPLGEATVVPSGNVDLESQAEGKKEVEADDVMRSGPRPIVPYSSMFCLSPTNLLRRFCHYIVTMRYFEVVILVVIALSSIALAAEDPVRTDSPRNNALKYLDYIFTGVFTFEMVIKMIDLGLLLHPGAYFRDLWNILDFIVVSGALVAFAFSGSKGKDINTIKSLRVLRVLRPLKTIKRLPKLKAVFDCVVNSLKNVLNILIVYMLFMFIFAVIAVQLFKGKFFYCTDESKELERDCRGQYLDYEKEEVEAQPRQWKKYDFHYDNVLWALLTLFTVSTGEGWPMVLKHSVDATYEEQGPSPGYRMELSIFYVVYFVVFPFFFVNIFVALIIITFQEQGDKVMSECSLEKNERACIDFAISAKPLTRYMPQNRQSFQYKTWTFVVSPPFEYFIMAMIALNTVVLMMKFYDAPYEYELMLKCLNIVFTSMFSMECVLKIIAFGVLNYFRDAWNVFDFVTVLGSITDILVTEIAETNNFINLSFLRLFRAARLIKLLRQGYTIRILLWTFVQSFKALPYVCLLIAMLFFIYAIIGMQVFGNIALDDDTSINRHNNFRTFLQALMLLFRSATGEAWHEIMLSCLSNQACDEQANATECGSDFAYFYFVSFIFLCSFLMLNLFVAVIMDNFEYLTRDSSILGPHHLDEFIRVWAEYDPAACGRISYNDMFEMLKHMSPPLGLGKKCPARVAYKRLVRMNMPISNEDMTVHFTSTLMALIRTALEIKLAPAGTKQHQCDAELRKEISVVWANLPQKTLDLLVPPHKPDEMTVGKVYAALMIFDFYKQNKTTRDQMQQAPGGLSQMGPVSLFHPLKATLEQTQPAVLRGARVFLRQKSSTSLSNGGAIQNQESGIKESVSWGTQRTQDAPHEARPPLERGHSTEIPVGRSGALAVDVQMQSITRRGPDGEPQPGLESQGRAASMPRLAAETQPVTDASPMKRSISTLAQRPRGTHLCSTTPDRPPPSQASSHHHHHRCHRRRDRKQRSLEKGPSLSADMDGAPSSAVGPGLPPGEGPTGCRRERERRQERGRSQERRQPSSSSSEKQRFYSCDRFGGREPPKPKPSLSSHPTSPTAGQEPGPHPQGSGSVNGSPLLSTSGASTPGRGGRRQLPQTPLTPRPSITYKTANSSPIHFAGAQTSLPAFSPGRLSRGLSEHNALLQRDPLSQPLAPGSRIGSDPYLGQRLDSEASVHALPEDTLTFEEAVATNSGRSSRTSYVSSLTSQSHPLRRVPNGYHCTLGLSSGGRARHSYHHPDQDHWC
T3 sequence (Q02410 whole entry): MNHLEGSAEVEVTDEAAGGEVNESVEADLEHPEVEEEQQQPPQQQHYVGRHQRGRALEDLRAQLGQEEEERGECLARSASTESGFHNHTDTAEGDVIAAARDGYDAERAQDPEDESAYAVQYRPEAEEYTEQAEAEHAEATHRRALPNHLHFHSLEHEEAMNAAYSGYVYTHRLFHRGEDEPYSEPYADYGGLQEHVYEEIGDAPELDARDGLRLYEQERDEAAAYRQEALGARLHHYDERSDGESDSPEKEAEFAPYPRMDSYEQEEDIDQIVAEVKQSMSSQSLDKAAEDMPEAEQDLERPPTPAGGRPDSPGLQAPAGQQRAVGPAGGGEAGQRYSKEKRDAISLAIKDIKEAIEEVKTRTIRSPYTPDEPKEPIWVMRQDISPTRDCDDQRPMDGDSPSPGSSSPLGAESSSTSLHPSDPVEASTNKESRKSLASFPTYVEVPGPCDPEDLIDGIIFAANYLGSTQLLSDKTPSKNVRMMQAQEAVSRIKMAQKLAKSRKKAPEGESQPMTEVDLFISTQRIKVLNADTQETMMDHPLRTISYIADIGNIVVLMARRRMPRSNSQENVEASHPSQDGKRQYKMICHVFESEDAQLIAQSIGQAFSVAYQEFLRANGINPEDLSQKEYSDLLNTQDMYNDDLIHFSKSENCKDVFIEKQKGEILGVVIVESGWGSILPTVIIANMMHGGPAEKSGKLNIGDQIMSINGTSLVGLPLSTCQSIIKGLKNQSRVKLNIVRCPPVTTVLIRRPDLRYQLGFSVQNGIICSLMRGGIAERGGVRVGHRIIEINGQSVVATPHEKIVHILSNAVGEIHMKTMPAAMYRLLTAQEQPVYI
T1 sequence (P09923 whole entry): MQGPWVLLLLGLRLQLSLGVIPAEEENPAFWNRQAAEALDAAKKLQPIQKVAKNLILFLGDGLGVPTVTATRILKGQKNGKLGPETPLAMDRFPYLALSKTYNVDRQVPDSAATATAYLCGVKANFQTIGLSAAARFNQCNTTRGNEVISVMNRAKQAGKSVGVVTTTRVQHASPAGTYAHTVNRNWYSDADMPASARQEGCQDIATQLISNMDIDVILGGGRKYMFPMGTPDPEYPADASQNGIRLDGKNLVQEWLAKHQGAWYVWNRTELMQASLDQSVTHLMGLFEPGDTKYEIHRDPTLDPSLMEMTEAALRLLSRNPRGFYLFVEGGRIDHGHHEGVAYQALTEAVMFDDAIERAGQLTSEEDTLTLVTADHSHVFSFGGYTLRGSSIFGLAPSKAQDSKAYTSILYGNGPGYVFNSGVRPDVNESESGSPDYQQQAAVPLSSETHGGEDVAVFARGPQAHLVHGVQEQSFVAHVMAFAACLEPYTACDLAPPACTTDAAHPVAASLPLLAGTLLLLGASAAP
DNA dC->dU-editing enzyme APOBEC-3A, sequence (P31941 whole entry): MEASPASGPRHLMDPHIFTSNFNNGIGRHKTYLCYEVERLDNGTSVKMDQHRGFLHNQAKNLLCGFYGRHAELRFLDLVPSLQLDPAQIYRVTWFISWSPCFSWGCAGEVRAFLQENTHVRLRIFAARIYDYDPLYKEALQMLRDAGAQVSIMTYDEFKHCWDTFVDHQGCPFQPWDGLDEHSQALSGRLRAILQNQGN
DNA damage-inducible transcript 3 protein, sequence (P35639 whole entry): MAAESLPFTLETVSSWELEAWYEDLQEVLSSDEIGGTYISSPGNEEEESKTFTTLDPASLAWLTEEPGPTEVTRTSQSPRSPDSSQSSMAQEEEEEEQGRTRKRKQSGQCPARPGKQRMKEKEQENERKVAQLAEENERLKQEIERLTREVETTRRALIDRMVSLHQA
Alkaline phosphatase, placental type, sequence (P05187 whole entry): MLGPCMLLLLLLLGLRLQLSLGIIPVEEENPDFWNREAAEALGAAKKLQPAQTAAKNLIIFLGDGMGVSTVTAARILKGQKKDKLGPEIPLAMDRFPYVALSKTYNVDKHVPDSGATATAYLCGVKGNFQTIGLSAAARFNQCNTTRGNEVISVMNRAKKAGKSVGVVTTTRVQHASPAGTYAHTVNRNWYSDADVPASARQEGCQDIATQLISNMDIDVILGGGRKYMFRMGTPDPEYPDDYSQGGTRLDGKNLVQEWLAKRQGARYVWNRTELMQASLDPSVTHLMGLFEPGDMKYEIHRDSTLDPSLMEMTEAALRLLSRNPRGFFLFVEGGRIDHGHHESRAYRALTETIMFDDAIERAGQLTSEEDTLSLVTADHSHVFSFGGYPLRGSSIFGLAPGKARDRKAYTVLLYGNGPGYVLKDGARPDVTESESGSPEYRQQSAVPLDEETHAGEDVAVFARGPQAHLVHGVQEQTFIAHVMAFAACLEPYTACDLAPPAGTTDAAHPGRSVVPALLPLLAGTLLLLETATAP
DNA dC->dU-editing enzyme APOBEC-3G, sequence (Q9HC16 whole entry): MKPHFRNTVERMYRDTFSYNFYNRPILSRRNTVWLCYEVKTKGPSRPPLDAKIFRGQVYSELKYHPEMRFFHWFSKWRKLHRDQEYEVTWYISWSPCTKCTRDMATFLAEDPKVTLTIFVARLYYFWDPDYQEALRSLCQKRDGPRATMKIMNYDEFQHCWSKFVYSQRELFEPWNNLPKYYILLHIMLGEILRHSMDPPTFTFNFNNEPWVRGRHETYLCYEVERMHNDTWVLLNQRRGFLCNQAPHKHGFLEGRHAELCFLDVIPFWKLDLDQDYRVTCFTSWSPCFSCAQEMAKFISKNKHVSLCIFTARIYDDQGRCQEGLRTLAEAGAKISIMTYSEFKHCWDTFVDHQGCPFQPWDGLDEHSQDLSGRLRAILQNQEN

## CCc1nnc(NC(=O)CSc2nnc(C)c(=O)n2N)s1
[1]
  IC50: > 100 µM (inactive)
[2]
  EC50: > 100 µM (inactive)

## O=C1CC(N2CCN(Cc3ccc(Cl)cc3)CC2)C(=O)N1CCc1ccccc1 (centres undefined)
Coagulation factor XII
  IC50: > 50 µM (inactive)

## Nn1c(SCC(=O)Nc2cccnc2Cl)nnc1-c1ccccc1
[3]
  IC50: > 100 µM (inactive)
[4]
  IC50: > 80 µM (inactive)
[5]
  IC50: 13.3 µM (active)

## COc1cccc2cc(C(=O)Nc3ccc(S(=O)(=O)NCC4CCCO4)cc3)c(=O)oc12 (centres undefined)
[6]
  IC50: > 56.8 µM (not active)
[7]
  IC50: > 50 µM (inactive)

## CC(C)C[C@H]1CN=C(Nc2ccccc2)N1CCCC1CCCCC1
[8]
  CC50: 16.2 µM (active)
[9]
  CC50: > 20 µM (active)
Cells [10]
  IC50: 40.1 µM (active)

## CCC(CC)c1nnc(NC(=O)c2c(C)nn(Cc3ccccc3Cl)c2C)s1
[11]
  Absolute IC50 (CHOP): < 10 µM

## CCN(CC)S(=O)(=O)c1cccc(-c2n[nH]c(=S)n2C)c1
[3]
  IC50: > 100 µM (inactive)
[5]
  IC50: 4.94 µM (active)

## COc1ccc(C)cc1NC(=O)CSc1nnc(COc2ccc(Cl)cc2)n1Cc1ccco1
[12]
  AC50: 5.42 µM (active)
Coagulation factor XII
  IC50: > 50 µM (inactive)
[13]
  EC50: 259 µM (active)

## O=C1NC(=O)N(c2ccccc2)C(=O)/C1=C/c1ccc(Sc2ccccc2)o1
[6]
  IC50: 35.9 µM (active)
[7]
  IC50: 34.4 µM (active)

## C=CCn1c(CCNC(=O)c2ccc(Cl)c(Cl)c2)nnc1SCCOc1ccc(OC)cc1
[13]
  EC50: 16.8 µM (active)
[11]
  Absolute IC50 (CHOP): 10 µM

## S=C1SCN(Cc2ccco2)CN1Cc1ccco1
[14]
  CC50: 16.8 µM (active)
[8]
  CC50: 8.73 µM (active)
[15]
  CC50: 18.4 µM (active)
Cells [10]
  IC50: 22.4 µM (active)
HEK293 [16]
  AC50: 0.574 µM (active)

## CN(C)CCCN(C(=O)c1cc2cc([N+](=O)[O-])ccc2s1)c1nc2cc3c(cc2s1)OCCO3
[17]
  CC50: 24.5 µM (active)
BJ [18]
  EC50: 1.65 µM (active)
BJ [19]
  EC50: 7.44 µM (active)
[20]
  EC50: < 0.1 µM (active)
[21]
  EC50: 6.94 µM (active)
BJ [22]
  EC50: 2.89 µM (inconclusive)
[23]
  EC50: 2.96 µM (inconclusive)
[24]
  EC50: > 100 µM (inactive)
Melanocortin receptor 4
  EC50: > 89.2 µM (inactive)
Cells [25]
  EC50: 0.148 µM (active)

## COc1ccccc1-c1nnc(SCC(=O)Nc2ccc(C)c(C)c2)[nH]1
[26]
  IC50: > 100 µM (not active)
[27]
  IC50: > 100 µM (inactive)
[28]
  IC50: > 100 µM (inactive)

## COc1ccc2nc(O)c(C(c3nnnn3CC3CCCO3)N3CCc4ccccc4C3)cc2c1 (centres undefined)
[24]
  EC50: > 100 µM (inactive)

## COc1cc(/C=C/C(=O)c2ccc(C)cc2)ccc1OCC#N
HEK293 [29]
  EC50: 4.61 µM (active)
HEK293 [30]
  IC50: 4.56 µM (active)
HEK293 [31]
  IC50: > 20 µM (inactive)
[32]
  EC50: > 20 µM (inactive)
HEK293 [33]
  IC50: 5.83 µM (active)
HEK293 [34]
  IC50: > 20 µM (inactive)

## COc1ccc(OCC(=O)NNC(=O)c2ccccn2)cc1
[35]
  IC50: > 20 µM (inactive)
[27]
  IC50: > 100 µM (inactive)
Cells [10]
  IC50: 9.61 µM (active)
